Test results from US11453847B2, “Laundry sheet” (priority 2018, dated 2022).

Tests used:
Algal = conditions: in vivo
Experimental: (§1) (4) An ecotoxicity test was performed on various alkyl polyglucosides.

Water flea = conditions: in vivo
Experimental: as §1

Substance	Algal test EC50 (72 h) (Algal)	Water flea test EC50 (49 h) (Water flea)
alkyl ethoxylate [AEO]	1.2 µg/mL	1.9 µg/mL
fatty acid methyl ester ethoxylate [FMEE]	>100 µg/mL	79.2 µg/mL
